Assay results published in patent EP1247803A2, “Indolinone compounds suitable for modulation of protein kinases” (Sugen, Inc., priority 1996, dated 1998).

molecular target: T1, EGFR (Homo sapiens, UniProt P00533); test: EGFR ELISA assay (in vitro kinase activity, EGFR captured from A431 cell lysate); format: biochemical; design: concentration or dose not given beside the values
T1 construct: Add 7 ug A431 cell lysate per well (EGFR source); endogenous in cells; host or cells: A431
How it was run: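 EGFR from A431 lysate was captured on anti-EGFR antibody-coated plates and preincubated with compounds for 30 min. Autophosphorylation ran 5 min with 3 uM ATP and 5 mM MnCl2 (final), stopped with 20 mM EDTA. Phosphotyrosine was detected by anti-pTyr ELISA with ABTS/H2O2, read at 410 nm.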

T1 sequence (P00533 25-1210): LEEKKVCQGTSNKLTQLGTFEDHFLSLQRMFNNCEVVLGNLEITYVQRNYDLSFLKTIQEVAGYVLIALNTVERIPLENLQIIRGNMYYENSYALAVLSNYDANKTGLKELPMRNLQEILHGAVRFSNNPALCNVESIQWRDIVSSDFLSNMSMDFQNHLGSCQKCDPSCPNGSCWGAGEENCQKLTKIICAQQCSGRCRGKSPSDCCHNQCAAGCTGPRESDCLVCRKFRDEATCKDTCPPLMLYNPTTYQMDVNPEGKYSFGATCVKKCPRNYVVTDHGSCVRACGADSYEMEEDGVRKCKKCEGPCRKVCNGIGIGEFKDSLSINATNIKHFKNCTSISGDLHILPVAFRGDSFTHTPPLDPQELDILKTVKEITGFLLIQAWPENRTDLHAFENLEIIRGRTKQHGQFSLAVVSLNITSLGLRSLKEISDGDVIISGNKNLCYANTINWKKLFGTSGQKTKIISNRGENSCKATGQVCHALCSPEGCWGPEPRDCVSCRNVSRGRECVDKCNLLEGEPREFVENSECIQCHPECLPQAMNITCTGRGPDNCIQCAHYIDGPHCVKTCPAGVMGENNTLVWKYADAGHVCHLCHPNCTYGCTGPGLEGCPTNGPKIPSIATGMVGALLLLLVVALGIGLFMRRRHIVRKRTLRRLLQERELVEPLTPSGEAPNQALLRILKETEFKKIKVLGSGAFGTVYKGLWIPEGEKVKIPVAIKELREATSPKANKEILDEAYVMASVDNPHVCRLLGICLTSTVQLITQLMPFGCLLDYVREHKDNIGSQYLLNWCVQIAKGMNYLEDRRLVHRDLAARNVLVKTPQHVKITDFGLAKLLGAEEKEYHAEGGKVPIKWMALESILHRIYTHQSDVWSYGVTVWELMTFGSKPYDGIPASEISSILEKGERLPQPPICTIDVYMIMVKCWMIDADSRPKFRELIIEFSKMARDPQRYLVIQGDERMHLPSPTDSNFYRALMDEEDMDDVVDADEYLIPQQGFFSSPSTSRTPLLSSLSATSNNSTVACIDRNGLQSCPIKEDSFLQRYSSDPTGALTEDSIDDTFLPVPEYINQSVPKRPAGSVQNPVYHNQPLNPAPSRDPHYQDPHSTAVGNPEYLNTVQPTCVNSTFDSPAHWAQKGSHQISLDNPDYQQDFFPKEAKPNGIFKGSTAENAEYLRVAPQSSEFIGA

SMILES | Biochem EGFR %Inhibition [%]
Cc1ccc(C=C2C(=O)Nc3ccc(Br)c(C)c32)s1 [10717/C07] | 28.7
COc1ccc(C=C2C(=O)Nc3ccc(S(=O)(=O)Nc4ccc(C(F)(F)F)cc4)cc32)cc1OC [10720/E04] | -2.7
Cc1cc(C)c(C=C2C(=O)Nc3ccc(Br)c(C)c32)[nH]1 [10721/C08] | 38.3
CC(C)(C)c1cc(C=C2C(=O)Nc3ccc(I)cc32)cc(C(C)(C)C)c1O [10721/B11] | 34.6
CNS(=O)(=O)c1ccc2c(c1)C(=Cc1cc3c([nH]1)CCCC3)C(=O)N2 [10721/D05] | 47.0
Cn1c(C=C2C(=O)Nc3c(Br)cc(Br)cc32)nc2ccccc21 [10721/A02] | 17.8
Cc1c(Br)ccc2c1C(=Cc1ccc[nH]1)C(=O)N2 [10717/C09] | 8.1
CNS(=O)(=O)c1ccc2c(c1)C(=Cc1ccccc1)C(=O)N2 [10720/D06] | -35.0
Cn1cc(Cl)c(C=C2C(=O)Nc3c(Br)cc(Br)cc32)n1 [10721/A03] | 25.5
COc1cc(O)ccc1C=C1C(=O)Nc2ccc(CCCl)cc21 [10720/G03] | 10.0
CNS(=O)(=O)c1ccc2c(c1)C(=Cc1ccc(OC)c(OC)c1)C(=O)N2 [10720/D04] | -7.7
O=C1Nc2c(Br)cc(Br)cc2C1=Cc1cc([N+](=O)[O-])cc(CCl)c1O [10721/A06] | 32.7
COc1ccc(O)c(C=C2C(=O)Nc3ccc(CCCl)cc32)c1 [10720/G10] | 20.4
CCOc1cc(C=C2C(=O)Nc3ccc(CCCl)cc32)ccc1O [10720/G09] | -19.7
CNS(=O)(=O)c1ccc2c(c1)C(=Cc1ccc(SC)s1)C(=O)N2 [10720/D07] | 14.8
CC(C)(C)c1cc(C=C2C(=O)Nc3c(Br)cc(Br)cc32)ccc1O [10721/A09] | 28.0
O=C1Nc2ccc(S(=O)(=O)Nc3ccc(C(F)(F)F)cc3)cc2C1=Cc1c(F)cc(F)cc1F [10720/E02] | 25.2
CNS(=O)(=O)c1ccc2c(c1)C(=Cc1c(C)cc(O)cc1O)C(=O)N2 [10720/D08] | -13.3
O=C1Nc2ccc(I)cc2C1=Cc1cc2c([nH]1)CCCC2 [10721/B05] | 76.8
CCOc1cc(C=C2C(=O)Nc3ccc(S(=O)(=O)NC)cc32)ccc1O [10720/D09] | 2.4
Cc1[nH]c(C=C2C(=O)Nc3ccc(Br)c(C)c32)c(Br)c1Br [10717/C11] | 67.3
Cc1c(Br)ccc2c1C(=Cc1c[nH]c3ccccc13)C(=O)N2 [10717/C06] | -49.7
Cc1c(Br)ccc2c1C(=Cc1cccn1C)C(=O)N2 [10717/C04] | 14.4
Cc1c(Br)ccc2c1C(=Cc1ccc(F)cc1)C(=O)N2 [10717/C05] | 13.1
CC(C)(C)c1cc(C=C2C(=O)Nc3c(Br)cc(Br)cc32)cc(C(C)(C)C)c1O [10721/A11] | 24.6
CC(C)(C)c1cc(C=C2C(=O)Nc3ccc(I)cc32)ccc1O [10721/B09] | 38.9
COc1ccc(O)c(C=C2C(=O)Nc3ccc(S(=O)(=O)Nc4ccc(C(F)(F)F)cc4)cc32)c1 [10720/E10] | 49.1

SMILES | Biochem EGFR %Inhibition [%]
Cc1c(Br)ccc2c1C(=Cc1cc3c([nH]1)CCCC3)C(=O)N2 [10721/C05] | 68.1
Cc1c(Br)ccc2c1C(=Cc1nc3ccccc3n1C)C(=O)N2 [10721/C02] | 68.3
O=C1Nc2c(Br)cc(Br)cc2C1=Cc1ccc(Cl)s1 [10721/A07] | 35.2
CNS(=O)(=O)c1ccc2c(c1)C(=Cc1ccccc1O)C(=O)N2 [10720/D05] | -24.1
CNS(=O)(=O)c1ccc2c(c1)C(=Cc1cc([N+](=O)[O-])cc(CCl)c1O)C(=O)N2 [10721/D06] | 44.5
O=C1Nc2c(Br)cc(Br)cc2C1=Cc1cc2c([nH]1)CCCC2 [10721/A05] | 41.4
CNS(=O)(=O)c1ccc2c(c1)C(=Cc1nc3ccccc3n1C)C(=O)N2 [10721/D02] | 21.5
Cc1cc(O)cc(O)c1C=C1C(=O)Nc2ccc(S(=O)(=O)N3CCOCC3)cc21 [10720/F08] | -39.6
O=C1Nc2ccc(S(=O)(=O)N3CCOCC3)cc2C1=Cc1ncc[nH]1 [10720/F11] | -61.1
O=C1Nc2ccc(CCCl)cc2C1=Cc1ncc[nH]1 [10720/G11] | -56.7
O=C1Nc2ccc(S(=O)(=O)Nc3ccc(C(F)(F)F)cc3)cc2C1=Cc1ccccc1O [10720/E05] | 40.7
CC(C)(C)c1cc(C=C2C(=O)Nc3c(Br)cc(Br)cc32)cc(Br)c1O [10721/A10] | 31.1
O=C1Nc2ccc(S(=O)(=O)N3CCOCC3)cc2C1=Cc1ccccc1O [10720/F05] | -14.2
COc1cc(O)ccc1C=C1C(=O)Nc2ccc(S(=O)(=O)N3CCOCC3)cc21 [10720/F03] | 7.1
CNS(=O)(=O)c1ccc2c(c1)C(=Cc1cc(C)c(C)s1)C(=O)N2 [10721/D04] | 5.0
CC(C)(C)c1cc(C=C2C(=O)Nc3ccc(I)cc32)cc(Br)c1O [10721/B10] | 42.9
Cc1cc(O)cc(O)c1C=C1C(=O)Nc2ccc(CCCl)cc21 [10720/G08] | -9.5
CCOc1ccccc1C=C1C(=O)Nc2c(Br)cc(Br)cc21 [10717/A02] | 24.3
CNS(=O)(=O)c1ccc2c(c1)C(=Cc1cc(OC)ccc1O)C(=O)N2 [10720/D10] | -10.2
CSc1ccc(C=C2C(=O)Nc3ccc(S(=O)(=O)N4CCOCC4)cc32)s1 [10720/F07] | 35.2
O=C1Nc2ccc(CCCl)cc2C1=Cc1ccccc1O [10720/G05] | 27.0
O=C1Nc2ccc(S(=O)(=O)Nc3ccc(C(F)(F)F)cc3)cc2C1=Cc1ccccc1 [10720/E06] | 30.1
Cc1c(Br)ccc2c1C(=Cc1ccc(Br)cc1)C(=O)N2 [10717/C08] | 24.3
Cc1c(Br)ccc2c1C(=Cc1cc(C(C)(C)C)c(O)c(C(C)(C)C)c1)C(=O)N2 [10721/C11] | 14.1
CSc1ccc(C=C2C(=O)Nc3ccc(CCCl)cc32)s1 [10720/G07] | -8.0
Cc1c(Br)ccc2c1C(=Cc1ccc(Cl)s1)C(=O)N2 [10721/C07] | 24.6
COc1cc(O)ccc1C=C1C(=O)Nc2ccc(S(=O)(=O)Nc3ccc(C(F)(F)F)cc3)cc21 [10720/E03] | 54.4
